Literature values, collected in patent publication US9316644B2, “Method for establishing the sensitivity of tumours to capecitabin and test kit” (SANOXSYS GMBH, priority 2006, dated 2016).
Read-outs that look alike come from different tables or passages of the source.

How the values were obtained:
[1] = tested on: metastatic mamma carcinomas; details: for median reaction duration: in vivo; for ORR (overall response): second line after anthracycline failure
[2] = tested on: progressive mamma carcinoma; details: of 25 patients; continuous low-dose 5-FU
[3] = tested on: metastatic mamma carcinoma
[4] = tested on: metastatic mamma carcinomas
[5] = 68 patients evaluable for effectivity

CC(=O)O[C@H]1C(=O)[C@@]2(C)[C@H]([C@H](OC(=O)c3ccccc3)[C@]3(O)C[C@H](OC(=O)[C@H](O)[C@@H](NC(=O)c4ccccc4)c4ccccc4)C(C)=C1C3(C)C)[C@]1(OC(C)=O)CO[C@@H]1C[C@@H]2O [Paclitaxel]
median reaction duration [1]: 9.4 months
ORR (overall response) [1]: 21%

O=c1[nH]cc(F)c(=O)[nH]1 [5-FU, 5-Fluorouracil]
patients achieving an objective reaction [2]: 8 patients

CCCCCOC(=O)Nc1nc(=O)n(C2OC(C)C(O)C2O)cc1F (centres unmarked) [capecitabine, Pentyl[1-(3,4-dihydroxy-5-methyl-tetrahydrofuran-2-yl)-5-fluoro-2-oxo-1H-pyrimidin-4-yl]aminomethanoat]
complete remission [3, 5]: 3%
partial remission [3, 5]: 22%
diarrhea ([3]; CTC degree 1 and 2): 21%
lethargy ([3]; CTC degree 1 and 2): 18%
nausea and vomiting ([3]; CTC degree 1 and 2): 38%
hand and foot syndrome ([3]; CTC degree 1 and 2, 1250 mg/m^2 twice a day for 14 days, 7-day break, 77 patients evaluable): 40%
hand and foot toxicity ([3]; degree 3): 14%
stabilization of the disease ([3]; in vivo): 47%
tumor control ([3]; patients with intensive previous treatment): 72%
median reaction duration [1]: 9.4 months
ORR (overall response) [1]: 36%
combination effect (with CPT-11, Tomudex, Mitomycin C or Cyclophosphamide): additive
combination effect (with Paclitaxel or Docetaxel): supra-additive
combination effect (with a radiation therapy): Synergetic effects
mean remission duration ([4]; human, in vivo): 241 days
median survival ([4]; human, in vivo): 384 days
median time until progression ([4]; human, in vivo): 93 days
patients with stable sequence of the illness ([4]; human, in vivo): 43%
therapy-induced fatalities ([4]; human, in vivo): did not occur
objective remission rate ([4]; intend to treat evaluation, 162 patients, 2510 mg/m^2/day for 14 days, 7-day break): 20%
tolerability ([4]; no pre-medication or primary prophylaxis necessary): excellent tolerability profile
patients whose pain was reduced by more than 50% ([4]; of 51 patients with pain figure above 20 mm on analogue pain scale at start): 47%
reaction rate ([4]; sub-group of 42 anthracycline and paclitaxel therapy refractory patients): 29%
